# From PubChem BioAssay (NCI)
# Values joined by “and” are separate entries in the source; they are usually repeats but may differ in a detail not shown here. Equal entries are not always repeated.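 Test compounds were applied to cells in 96-well plates for 48 hours at 5 doses. Here, GI50 denotes the concentration required for 50% inhibition of growth. TGI: concentration producing complete growth inhibition.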
# Experiments:
# Assay in all cases: growth of human tumour cells (NCI), 48 h
# HS 578T breast = tested on: HS 578T breast
# ACHN renal = tested on: ACHN renal
# T-47D breast = tested on: T-47D breast
# SK-MEL-28 melanoma = tested on: SK-MEL-28 melanoma
# UACC-62 melanoma = tested on: UACC-62 melanoma
# BT-549 breast = tested on: BT-549 breast
# U251 CNS = tested on: U251 CNS
# HT29 colon = tested on: HT29 colon
# PC-3 prostate = tested on: PC-3 prostate
# NCI-H226 lung = tested on: NCI-H226 lung
SMILES,GI50 (HS 578T breast) [µM],TGI (HS 578T breast) [µM],GI50 (ACHN renal),TGI (ACHN renal),GI50 (T-47D breast) [µM],TGI (T-47D breast) [µM],GI50 (SK-MEL-28 melanoma) [µM],TGI (SK-MEL-28 melanoma) [µM],GI50 (UACC-62 melanoma) [µM],TGI (UACC-62 melanoma) [µM],GI50 (BT-549 breast) [µM],TGI (BT-549 breast) [µM],GI50 (U251 CNS) [µM],TGI (U251 CNS) [µM],GI50 (HT29 colon) [µM],TGI (HT29 colon),GI50 (PC-3 prostate) [µM],TGI (PC-3 prostate),GI50 (NCI-H226 lung) [µM],TGI (NCI-H226 lung) [µM]
CC(C)(C)c1ccc(NS(=O)(=O)c2ccc3nc(NC(=O)c4cnccn4)[nH]c3c2)cc1,2.66,13.2,2.21 µM,7.63 µM,4.37,23.7,3.57,17.5,1.11,13.2,6.15,22.3,3.96,19.6,1.79,12.6 µM,1.65,10.6 µM,2.27,8.19
COc1ccc(Cn2cc3c(c2-c2cc(OC)c(OC)c(OC)c2)CCc2cnoc2-3)cc1,0.238,0.805,0.849 µM,> 100 µM,0.82,> 100,0.517,> 100,0.342,> 23,1.62,> 100,0.393,> 100,0.335,10.3 µM,0.473,> 100 µM,1.58,> 100
CC(=O)c1cc(O)c2ccccc2c1O,39.7,> 100,16.9 µM,32.5 µM,17.4,41.4,22.9,44.5,16.2,32.7,20.1,37.2,18.6,33.6,15.5,37 µM,20.3,50.8 µM,17.5,33.2
Nc1ncc(-c2cccc(S(N)(=O)=O)c2)c2scc(-c3ccc(F)c(Cl)c3)c12,7.23,22,6.36 µM,> 25 µM,3.59,11,8.8,> 23.3,5.17,11.7,7.69,15.1,6.77,> 17.5,5,15.3 µM,6.83,> 20.6 µM,5.71,15.1
C=CC(COC(c1ccccc1)(c1ccccc1)c1ccccc1)N(CC)CC (stereo unspecified),2.21,9.86,8.1 µM,23.9 µM,4.6,19.8,3.59,11.8,3.61,12.5,14.7,30.3,2.98,12,1.93,7.05 µM,4.02,15.6 µM,11.9,30.9
Cc1c([N+](=O)[O-])oc2ccc3ccccc3c12,–,> 100,–,> 100 µM,–,> 100,–,> 100,–,> 100,–,> 100,–,> 100,–,> 100 µM,–,> 100 µM,–,> 100
C=C1C(=O)O[C@H]2[C@H]1CC/C(COC(=O)NCc1ccc(Cn3c(=O)sn(-c4ccccc4)c3=O)cc1)=C\CC[C@@]1(C)O[C@@H]21,4.14,33.1,1.64 µM,3.14 µM,1.98,4.66,1.7,3.41,2.04,4.15,2.14,5,2.37,5.28,2.15,4.14 µM,2.36,5.63 µM,14.8,35.2
Cc1cc(I)cc(CN(C)CCCN2CCN(C)CC2)c1O,23.6,> 68.1,81.6 µM,> 100 µM,28.7,91.1,17.2,33,6.89,19.3,21,> 73.9,30.9,> 100,13.7,41.2 µM,52.2,> 100 µM,56.9,> 100
CC1(C)C(=O)/C(=C\c2cccnc2)C[C@]2(C)[C@H]3CC[C@@H]4[C@@H](C(=O)/C=C/c5ccncc5)CC[C@@]4(C)[C@]3(C)CC[C@@H]12,2.78,7.93,1.75 µM,3.36 µM,1.6,9.54,1.98,3.97,1.61,3.46,1.59,3.35,1.62,3.03,2.41,8.64 µM,1.65,4.55 µM,2.34,5.78
Cc1cc(Nc2cc(N)ncn2)c(=O)n2c1C(=O)NC21CCCCC1,54.3,> 100,25.3 µM,> 100 µM,> 100,> 100,> 100,> 100,> 100,> 100,48.4,> 100,83.7,> 100,> 100,> 100 µM,> 100,> 100 µM,> 100,> 100
O=C(NC(=S)Nc1cc(Cl)ccc1O)c1cccc(Br)c1,6.85,41,6.85 µM,> 100 µM,3.71,> 100,16.5,> 100,6.24,> 100,62.9,> 100,3.95,> 100,69.3,> 100 µM,6.78,> 100 µM,28.6,> 100
C/C(=N\NC(=S)N(C)C)c1ccccn1,–,37.2,0.00151 µM,1.74 µM,–,11.5,–,20.6,–,2.38,–,9.59,0.00245,6.73,0.000846,15.8 µM,0.132,15.9 µM,0.0645,5.1
Cc1cc(C(=O)c2ccccc2)c(C)c2c1[nH]c1ccc(Cl)cc12,0.0501,27.8,0.0669 µM,15.5 µM,0.0447,> 87.2,3.64,72.3,0.0399,18.7,0.0941,3.56,0.0612,16.2,0.0393,1.93 µM,0.0526,> 43.9 µM,0.892,15.6
NC(=S)NN=C1CSSC1,3.49,40,3.05 µM,31.7 µM,4.31,29.1,4.67,25.9,3.21,17.2,3.37,10.1,3.66,23.1,2.31,8 µM,3.57,24.5 µM,1.66,14.5
CC(C)=CCCC(C)C1=C(O)C(=O)C(C)=CC1=O (stereo unspecified),–,> 79.3,–,3.98 µM,–,3.92,–,> 42.4,–,27.9,–,30.2,–,> 56.1,–,> 64 µM,–,33 µM,–,47.5
COc1ccc2ccc3oc([N+](=O)[O-])cc3c2c1,0.297,1.44,0.0402 µM,1.44 µM,1.83,> 100,0.202,0.54,0.157,0.355,0.194,0.606,0.277,5.37,0.202,1.89 µM,1.08,7.9 µM,0.296,3.22
O=C(O)c1cc2ccccc2c2c1C(=O)c1ccccc1-2,–,> 100,–,> 100 µM,–,> 100,–,> 100,–,> 100,–,> 100,–,> 100,–,> 100 µM,–,> 100 µM,–,> 100
CNCCN=c1ccc2c3c1c(O)c1c(O)ccc(=O)c1c3[nH]n2CCNCCO,–,1.41,0.0844 µM and 0.0775 µM,0.708 µM and 0.259 µM,–,5.35,1.5,6.87,0.0741,3.07,–,2.43,–,0.287,0.587,3.71 µM and 9.04 µM,0.41,6.66 µM and 4.9 µM,0.000924,0.336
O=C(O)C(Oc1nc(=S)[nH]c(=S)[nH]1)(c1ccc(Cl)cc1)c1ccc(Cl)cc1,–,> 100,–,> 100 µM,–,> 100,–,> 100,–,> 100,–,> 100,–,> 100,–,> 100 µM,–,> 100 µM,–,> 100
Oc1ccc(Cc2cc(Cl)cc(Cl)c2O)cc1Cl,–,37.2,–,31.2 µM,–,44.5,–,32.9,–,27.9,–,33.4,–,36.2,–,43.9 µM,–,33.1 µM,–,40.2
CCN(CC)C(=S)[S][Bi]([S]C(=S)N(CC)CC)[S]C(=S)N(CC)CC,2.64,5.87,0.226 µM,0.488 µM,0.122,0.341,0.218,0.492,0.252,0.806,0.203,0.384,1.12,2.34,0.052,0.229 µM,0.263,1.04 µM,2.07,4.18
COC(=O)C(C)NC(=O)c1ccccc1I(OS(=O)(=O)C(F)(F)F)c1ccccc1 (stereo unspecified),19.6,47.9,19.2 µM,36.4 µM,36.3,> 100,18.7,45.3,17.3,35,23,57.3,18.2,38.5,23.1,> 61.4 µM,22,53.1 µM,17.1,36
